In patent publication US10864215B2, “Use of phosphoinositide 3-kinase inhibitors for treatment of vascular malformations” (MEMORIAL SLOAN-KETTERING CANCER CENTER, priority 2015, dated 2020):
“Also recorded” adds a separate entry of the source.

What was measured:
[1] = tested on: PIK3CA^Tie2-Cre embryos; test: Treatment of pregnant PIK3CA^Tie2-Cre mice, embryo vascular phenotype; assay type: in vivo
Method: (§1) For the treatment of pregnant PIK3CA^Tie2-Cre mice, BYL719 was administered orally three times at E7.5, E8.5, and E9.5. Two hours after the last treatment, embryos were harvested and characterized. IHC and IF stainings were performed using Discovery XT processor (Ventana Medical Systems) at the Molecular Cytology Core (MSKCC). Tissue sections were deparaffinized with EZPrep buffer (Ventana Medical Systems), antigen retrieval was performed with CC1 buffer (Ventana Medical Systems). Sections were blocked for 30 minutes with Background Buster solution (Innovex) or 10% normal rabbit serum (for LYVE-1 antibody) followed by avidin/biotin blocking for 8 minutes. Sections were stained with the following antibodies: CD31: (Dianova, DIA-310, 1 μg×mL^−1) for 5 hours, followed by 60 minutes incubation with biotinylated goat anti-rat IgG (Vector labs, PK-4004) at 1:200 dilution. The detection was performed with Streptavidin-HRP D (Ventana Medical Systems), followed by incubation with Alexa Fluor 488 (Invitrogen, T20922); BrdU: sections were pretreated with Protease K (5 μg×mL^−1) and incubated with anti-BrdU (Roche, 1170376, 1 μg×mL^−1) for 5 hours, followed by 60 minutes incubation with biotinylated horse anti-mouse IgG (Vector Labs, MKB-22258). The detection was performed with Streptavidin-HRP D (Ventana Medical Systems), followed by incubation with Alexa Fluor 594 (Invitrogen, T20935). When two markers were used, stainings were performed consecutively according to the procedure described above. After staining, slides were counterstained with DAPI (Sigma, D9542, 5 μg×mL^−1) for 10 min and coverslipped with Mowiol. Antibodies were used as follows: GLUT-1: Sections were incubated with anti-GLUT-1 antibody (Chemicon, AB1340, 0.5 μg×mL^−1) for 4 hours, followed by 60 minutes incubation with biotinylated goat anti-rabbit IgG (Vector labs, PK6101) at 1:200 dilution; LYVE-1: Sections were incubated with anti-LYVE-1 antibody (R&D Systems, AF2125, 1 μg×mL^−1) for 3 hours, followed by 60 minutes incubation with biotinylated rabbit anti-goat IgG (Vector, BA-5000) at 1:200 dilution.; and WT-1: Sections were incubated with anti-WT-1 antibody (Abcam, Ab89901, 1:50 dilution) for 1 hour, followed by 60 minutes incubation with biotinylated rabbit anti-goat IgG (Vector, BA-5000) at 1:200 dilution. For GLUT-1, LYVE-1, and WT-1 IHC, detection was performed with DAB detection kit (Ventana Medical Systems) according to manufacturer instructions, followed by counterstaining with hematoxylin (Ventana Medical Systems) and coverslipped with Permount (Fisher Scientific).

[2] = tested on: ANG2; test: ANG2 mRNA (RT-qPCR) and protein (ELISA) in PIK3CA^H1047R ECs; assay type: cell-based, human; details: serum-starved, treated overnight, BYL719 1 μM, MK2206 1 μM, Everolimus 50 nM; for ANG2 protein expression: ELISA; for ANG2 mRNA expression: RT-qPCR
[3] = tested on: phosphorylated AKT (T308 and S473); test: Western blot of HUVEC cells expressing TEK L914F; assay type: cell-based, human; details: HUVEC stably expressing TEK L914F, treated 4 hours
Method: FIGS. 27A-27B. Treatment of VM with PI3K inhibitors. (A) Western blot of HUVEC cells transduced with TEK L914F mutation and probed with the indicated antibodies. Cells were treated for 4 hours with the indicated doses of BYL719. (B) Representative images of the allograft VM treated with the topical formulation of BYL719. Free and soluble refer to the two different preparations of the topical formula. Arrows indicate the area affected by the VM allograft.
Proteins were extracted using RIPA buffer and Western blot was performed usim standard methods. Antibodies for Western blot were: pAKT (S473) (Cell Signaling; 4060), pAKT (T308) (Cell Signaling; 2965), AKT (Cell Signaling; 9272), pS6K (T389) (Cell Signaling; 9205), S6K (Cell Signaling; 2708), pS6 (S240/4) (Cell Signaling; 5364), pS6 (S235/6) (Cell Signaling; 4858), S6 (Cell Signaling; 2217), actin (Cell Signaling; 4970). Tube formation assay was performed using Matrigel-coated 48 multiwells as a substrate. 10^5 EC were seeded in EBM-2 media without FBS and analyzed after 6 hours for tube formation.

[4] = tested on: PIK3CA^CAG-CreER VM-derived allografts; test: VM allografts treated topically with BYL719 1% (w/w) cream; assay type: in vivo, mice; details: topical, daily, BYL719 1% (w/w) in two cream formulations (free and soluble BYL719), 3 weeks
Method: For the formulation of topical preparations, the cream base Versatile™ (Fargon) was used, which allows the incorporation of active principles and has the ability to vanish rapidly into the skin of the mice. Two different formulations using BYL719 at 1% (w/w) were prepared as follows. Free BYL719: This formulation was generated by mixing BYL719 in powder with the base cream and homogenized using an Ultra-Turrax to achieve a similar distribution of the active principle. Soluble BYL719: For this formula, BYL719 powder was dissolved in a small volume of DMSO (400 mg×mL^−1). This concentrated solution was then incorporated into the base cream with gentle agitation, achieving a homogeneous distribution of the active principle. The topical formulations were applied into the mice lesions at daily-basis and VM growth was assessed as described above.

[5] = tested on: PIK3CA^CAG-CreER VM-derived allografts; test: PIK3CA^CAG-CreER VM-derived allografts in nude mice, oral treatment; assay type: in vivo; details: for VM volume / apoptosis (cleaved caspase 3 in CD31-positive cells) / proliferation (BrdU incorporation in CD31-positive cells): allografts in nude mice, daily p.o., one week, BYL719 50 mg×kg^−1, everolimus 10 mg×kg^−1, propranolol 40 mg×kg^−1
Method: For allograft studies, vascular lesions isolated from PIK3CA^CAG-CreER mice were rinsed with ice cold PBS, minced, resuspended with cold 1:1 DMEM/Matrigel, and injected subcutaneously in six-week-old female athymic Foxn1^nu nude mice. […] The following formula was applied:
[formula] After one week of treatment, VM were measured and harvested for further analysis. VM volume was calculated using the following formula: […]
as §1, with “IHC” for “For the treatment of pregnant PIK3CA^Tie2-Cre mice, BYL719 was administered orally three times at E7.5, E8.5, and E9.5. Two hours after the last treatment, embryos were harvested and characterized. IHC”

[6] = pregnant mice, BYL719 50 mg×kg^−1 p.o., 48, 24 and 2 hours before harvest
[7] = VVM in nude mice, BYL719 50 mg×kg-1 daily p.o.

SMILES | meningeal, cardinal vein and dorsal aorta blood vessel morphology (histology, CD31 coronal sections) ([1]; pregnant mice treated, E9.5 embryos) | Phospho-AKT staining in PIK3CA^Tie2-Cre and PIK3CA^WT embryos ([1]; pregnant mice treated, versus untreated control embryos) | cephalic and intersomitic small blood vessel formation (CD31 whole-mount staining) [1, 6] | overall body size of PIK3CA^Tie2-Cre E9.5 embryos [1, 6] | ANG2 protein expression [2] | ANG2 mRNA expression [2] | amount of phosphorylated AKT (T308 and S473) [3] | regression of skin lesions (VM volume) [4] | phospho-AKT (S473) levels [5, 7] | phospho-S6RP (S240/4) levels [5, 7] | VM volume [5] | apoptosis (cleaved caspase 3 in CD31-positive cells) [5] | proliferation (BrdU incorporation in CD31-positive cells) [5]
Cc1nc(NC(=O)N2CCC[C@H]2C(N)=O)sc1-c1ccnc(C(C)(C)C(F)(F)F)c1 [BYL719] | reestablished meningeal, cardinal vein, and dorsal aorta blood vessels morphology | strong reduction | restored cephalic and intersomitic small blood vessel formation | comparable to PIK3CA^WT littermates | able to rescue | able to rescue | decreased | rapid and sustained regression of skin lesions | decrease | decrease | decrease in VM volume | increased apoptosis | decrease in proliferation; also recorded: reduced proliferation
Cl.Cl.NC1(c2ccc(-c3nc4ccn5c(=O)[nH]nc5c4cc3-c3ccccc3)cc2)CCC1 [MK2206, 8-[4-(1-aminocyclobutyl)phenyl]-9-phenyl-1,2,4-triazolo[3,4-f][1,6]naphthyridin-3(2H)-one, dihydrochloride] |  |  |  |  | able to rescue | able to rescue |  |  |  |  |  |  | 
CO[C@H]1C[C@@H]2CC[C@@H](C)[C@@](O)(O2)C(=O)C(=O)N2CCCC[C@H]2C(=O)O[C@H]([C@H](C)C[C@@H]2CC[C@@H](OCCO)[C@H](OC)C2)CC(=O)[C@H](C)/C=C(\C)[C@@H](O)[C@@H](OC)C(=O)[C@H](C)C[C@H](C)/C=C/C=C/C=C/1C [everolimus] |  |  |  |  |  |  |  |  |  |  | partially decreased VM size; also recorded: greatest growth inhibition | did not increase apoptosis | partially decreased
